Columns and labels:
hTP = molecular target: T1, hTP (Homo sapiens, UniProt P21731); assay: FLIPR calcium signal, TP; format: cell-based; details: HEK-293(EBNA)
T1 construct: expressed in transfected cells
T1 sequence (P21731 1-343): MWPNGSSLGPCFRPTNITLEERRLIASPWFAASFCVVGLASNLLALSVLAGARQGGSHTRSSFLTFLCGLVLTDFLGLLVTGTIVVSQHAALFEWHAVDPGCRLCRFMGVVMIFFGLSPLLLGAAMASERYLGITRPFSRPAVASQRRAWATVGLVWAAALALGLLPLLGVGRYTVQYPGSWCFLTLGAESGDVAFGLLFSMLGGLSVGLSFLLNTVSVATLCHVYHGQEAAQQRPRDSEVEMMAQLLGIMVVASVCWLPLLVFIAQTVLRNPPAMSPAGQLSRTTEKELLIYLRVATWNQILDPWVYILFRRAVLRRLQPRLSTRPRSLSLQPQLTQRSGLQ
Protocol: HEK-293(EBNA) cells, stably expressing one type or subtype of recombinant human prostaglandin receptors (prostaglandin receptors expressed: hDP/Gqs5; hEP1; hEP2/Gqs5; hEP3A/Gqi5; hEP4/Gqs5; hFP; hIP; hTP), were cultured in 100 mm culture dishes in high-glucose DMEM medium containing 10% fetal bovine serum, 2 mM 1-glutamine, 250 μg/ml geneticin (G418) and 200 μg/ml hygromycin B as selection markers, and 100 units/ml penicillin G, 100 μg/ml streptomycin and 0.25 μg/ml amphotericin B.
Cells were seeded at a density of 5×10^4 cells per well in Biocoat® Poly-D-lysine-coated black-wall, clear-bottom 96-well plates (Becton-Dickinson) and allowed to attach overnight in an incubator at 37° C. Cells were then washed two times with HBSS-HEPES buffer (Hanks Balanced Salt Solution without bicarbonate and phenol red, 20 mM HEPES, pH 7.4) using a Denley Cellwash plate washer (Labsystems). After 45 minutes of dye-loading in the dark, using the calcium-sensitive dye Fluo-4 AM at a final concentration of 2 μM, plates were washed four times with HBSS-HEPES buffer to remove excess dye leaving 100 μl in each well. Plates were re-equilibrated to 37° C. for a few minutes.
Cells were excited with an Argon laser at 488 nm, and emission was measured through a 510-570 nm bandwidth emission filter (FLIPR™, Molecular Devices, Sunnyvale, Calif.). Drug solution was added in a 50 μl volume to each well to give the desired final concentration. The peak increase in fluorescence intensity was recorded for each well. On each plate, four wells each served as negative (HBSS-HEPES buffer) and positive controls (standard agonists: BW245C (hDP); PGE2 (HEP1; hEP2/Gqs5; hEP3A/Gqi5; hEP4/Gqs5); PGF2α (hFP); carbacyclin (hIP); U-46619 (hTP), depending on receptor). The peak fluorescence change in each drug-containing well was then expressed relative to the controls.
Compounds were tested in a high-throughput (HTS) or concentration-response (CoRe) format. In the HTS format, forty-four compounds per plate were examined in duplicates at a concentration of 10^−5 M. To generate concentration-response curves, four compounds per plate were tested in duplicates in a concentration range between 10^−5 and 10^−11 M. The duplicate values were averaged. In either, HTS or CoRe format each compound was tested on at least 3 separate plates using cells from different passages to give an n≧3.

EP2 = EP2 (Homo sapiens, UniProt P43116); assay: Competition binding, [3H]PGE2, EP2 (Ki); design: expressed in transfected cells; membranes or whole cells; details: HEK 293 cells stably expressing human EP2, [3H]PGE2
Chain of EP2 (P43116 whole entry): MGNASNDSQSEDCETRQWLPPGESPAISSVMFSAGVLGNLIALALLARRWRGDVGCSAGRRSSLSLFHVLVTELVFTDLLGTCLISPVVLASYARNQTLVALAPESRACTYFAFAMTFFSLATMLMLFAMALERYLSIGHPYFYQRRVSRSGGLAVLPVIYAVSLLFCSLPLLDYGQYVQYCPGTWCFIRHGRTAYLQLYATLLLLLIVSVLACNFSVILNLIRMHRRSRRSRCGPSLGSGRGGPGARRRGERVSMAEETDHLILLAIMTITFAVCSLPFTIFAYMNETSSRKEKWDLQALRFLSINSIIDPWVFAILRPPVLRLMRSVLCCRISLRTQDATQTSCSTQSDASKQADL
Protocol: Competition binding experiments were performed in a medium containing Hank's balanced salt solution, Hepes 20 mM, pH 7.3, membranes (˜60 μg protein) or 2×10^5 cells from HEK 293 cells stably expressing human EP2 receptors, [^3H]PGE2 (10 nM) and various concentrations of test compounds in a total volume of 300 μl. Reaction mixtures were incubated at 23° C. for 60 min, and were filtered over Whatman GF/B filters under vacuum. Filters were washed three times with 5 ml ice-cold buffer containing 50 mM Tris/HCl (pH 7.3). Non-specific binding was estimated in the presence of excess unlabeled PGE2 (10 μM). Binding data fitted to the binding model for a single class of binding sites, using nonlinear regression analysis. IC50 values thus obtained were converted to Ki using the equation of Ki=(IC50/(1+[L]/KD) where [L] represents PGE2 concentration (10 nM) and KD the dissociation constant for [^3H]PGE2 at human EP2 receptors (40 nM).
HEK-293 cells stably expressing the human or feline FP receptor, or EP1, EP2, or EP4 receptors were washed with TME buffer, scraped from the bottom of the flasks, and homogenized for 30 sec using a Brinkman PT 10/35 polytron. TME buffer was added to achieve a final 40 ml volume in the centrifuge tubes (the composition of TME is 100 mM TRIS base, 20 mM MgCl2, […]; 10N HCl is added to achieve a pH of 7.4).
The cell homogenate was centrifuged at 19000 r.p.m. for 20 min at 4° C using a Beckman Ti-60 rotor. The resultant pellet was resuspended in TME buffer to give a final 1 mg/ml protein concentration, as determined by Biorad assay. Radioligand binding competition assays vs. [^3H-]17-phenyl PGF2α. (5 nM) were performed in a 100 μl volume for 60 min. Binding reactions were started by adding plasma membrane fraction. The reaction was terminated by the addition of 4 ml ice-cold TRIS-HCl buffer and rapid filtration through glass fiber GF/B filters using a Brandel cell harvester. The filters were washed 3 times with ice-cold buffer and oven dried for one hour.
[^3H-] PGE2 (specific activity 180 Ci mmol) was used as the radioligand for EP receptors. [^3H] 17-phenyl PGF2α, was employed for FP receptor binding studies. Binding studies employing EP1, EP2, EP4 and FP receptors were performed in duplicate in at least three separate experiments. A 200 μl assay volume was used. Incubations were for 60 min at 25° C. and were terminated by the addition of 4 ml of ice-cold 50 mM TRIS-HCl, followed by rapid filtration through Whatman GF/B filters and three additional 4 ml washes in a cell harvester (Brandel). Competition studies were performed using a final concentration of 5 nM [^3H]-PGE2, or 5 nM [^3H] 17-phenyl PGF2αand non-specific binding determined with 10^−5M of unlabeled PGE2, or 17-phenyl PGF2α, according to receptor subtype studied.

SMILES | EC50 (hTP; read-out: Ca2+ Signal-EC50 (nM) TP) [nM] | Ki (EP2) [nM] | Ca2+ Signal-EC50 (nM) TP (hTP)
CCCCC(O)c1cccc([C@@H]2[C@@H](C/C=C\CCCC(=O)O)[C@H](Cl)C[C@H]2O)c1 (stereo partly drawn) [Entry 30, (Z)-7-{(1R,2S,3R,5R)-5-Chloro-3-hydroxy-2-[3-(1-hydroxy-pentyl)-phenyl]-cyclopentyl}-hept-5-enoic acid] | 3750 | 1260 | 
CCCCCC(O)c1ccc([C@@H]2[C@@H](C/C=C\CCCC(=O)O)[C@@H](Cl)C[C@H]2O)cc1 (stereo partly drawn) [Entry 9, (Z)-7-{(1R,2S,3R,5S)-5-Chloro-3-hydroxy-2-[4-(1-hydroxy-hexyl)-phenyl]-cyclopentyl}-hept-5-enoic acid] |  | 3950 | not active
CCCCCC(O)c1cccc([C@@H]2[C@@H](C/C=C\CCCC(=O)O)[C@H](Cl)C[C@H]2O)c1 (stereo partly drawn) [Entry 29, (Z)-7-{(1R,2S,3R,5R)-5-Chloro-3-hydroxy-2-[3-(1-hydroxy-hexyl)-phenyl]-cyclopentyl}-hept-5-enoic acid] |  | 1390 | not active
CCCCCCc1ccc([C@@H]2[C@@H](C/C=C\CCCC(=O)O)[C@H](Cl)C[C@H]2O)cc1 [Entry 33, (Z)-7-[(1R,2S,3R,5R)-5-Chloro-2-(4-hexyl-phenyl)-3-hydroxy-cyclopentyl]-hept-5-enoic acid] |  | 83 | not active
CCCCCCC(O)c1ccc([C@@H]2[C@@H](C/C=C\CCCC(=O)O)[C@H](Cl)C[C@H]2O)cc1 (stereo partly drawn) [Entry 25, (Z)-7-{(1R,2S,3R,5R)-5-Chloro-3-hydroxy-2-[4-(1-hydroxy-heptyl)-phenyl]-cyclopentyl}-hept-5-enoic acid] |  | 278 | not active
CC(C)(C)CCCC(O)c1ccc([C@@H]2[C@@H](CCCCCCC(=O)O)[C@H](Cl)C[C@H]2O)cc1 (mixture of isomers) [Entry 20, 7-{(1R,2S,3R,5R)-5-Chloro-3-hydroxy-2-[4-(1-hydroxy-5,5-dimethyl-hexyl)-phenyl]-cyclopentyl}-heptanoic acid] |  | 3850 | not active
O=C(O)CCCCCC[C@@H]1[C@@H](c2ccc(C(O)CCc3ccccc3)cc2)[C@H](O)C[C@H]1Cl (stereo partly drawn) [Entry 24, 7-{(1R,2S,3R,5R)-5-Chloro-3-hydroxy-2-[4-(1-hydroxy-3-phenyl-propyl)-phenyl]-cyclopentyl}-heptanoic acid] |  | 2160 | not active
O=C(O)CCC/C=C\C[C@@H]1[C@@H](c2ccc(C(O)c3ccccc3)cc2)[C@H](O)C[C@H]1Cl (stereo partly drawn) [Entry 28, (Z)-7-{(1R,2S,3R,5R)-5-Chloro-3-hydroxy-2-[4-(hydroxy-phenyl-methyl)-phenyl]-cyclopentyl}-hept-5-enoic acid] |  | 564 | not active
CCCCCC(O)c1ccc([C@@H]2[C@@H](C/C=C\CCCC(=O)O)[C@H](F)C[C@H]2O)cc1 (mixture of isomers) [Entry 8, (Z)-7-{(1R,2S,3R,5R)-5-Fluoro-3-hydroxy-2-[4-(1-hydroxy-hexyl)-phenyl]-cyclopentyl}-hept-5-enoic acid] |  | 804 | not active
CCCCCC(O)c1ccc([C@@H]2[C@@H](CCCc3ccc(C(=O)O)s3)[C@H](Cl)C[C@H]2O)cc1 (stereo partly drawn) [Entry 2, 5-(3-{(1R,2S,3R,5R)-5-Chloro-3-hydroxy-2-[4-(1-hydroxy-hexyl)-phenyl]-cyclopentyl}-propyl)-thiophene-2-carboxylic acid] |  | 24 | not active
CCCCCC(O)c1ccc([C@@H]2[C@@H](C/C=C\CCCC(=O)O)[C@H](Cl)C[C@H]2O)cc1 (single isomer, unassigned) [Entry 13] |  | 73 | not active
O=C(O)CCC/C=C\C[C@@H]1[C@@H](c2ccc(C(O)CC3CCCCC3)cc2)[C@H](O)C[C@H]1Cl (mixture of isomers) [Entry 17, (Z)-7-{(1R,2S,3R,5R)-5-Chloro-2-[4-(2-cyclohexyl-1-hydroxy-ethyl)-phenyl]-3-hydroxy-cyclopentyl}-hept-5-enoic acid] |  | 483 | not active
O=C(O)CCC/C=C\C[C@@H]1[C@@H](c2ccc(C(O)CCC3CCCCC3)cc2)[C@H](O)C[C@H]1Cl (stereo partly drawn) [Entry 15, (Z)-7-{(1R,2S,3R,5R)-5-Chloro-2-[4-(3-cyclohexyl-1-hydroxy-propyl)-phenyl]-3-hydroxy-cyclopentyl}-hept-5-enoic acid] |  | 260 | not active
O=C(O)CCCCCC[C@@H]1[C@@H](c2ccc(C(O)CC3CCCCC3)cc2)[C@H](O)C[C@H]1Cl (stereo partly drawn) [Entry 18, 7-{(1R,2S,3R,5R)-5-Chloro-2-[4-(2-cyclohexyl-1-hydroxy-ethyl)-phenyl]-3-hydroxy-cyclopentyl}-heptanoic acid] |  | 2290 | not active
O=C(O)CCCCCC[C@@H]1[C@@H](c2ccc(C(O)Cc3ccccc3)cc2)[C@H](O)C[C@H]1Cl (stereo partly drawn) [Entry 22, 7-{(1 R,2S,3R,5R)-5-Chloro-3-hydroxy-2-[4-(1-hydroxy-2-phenyl-ethyl)-phenyl]-cyclopentyl}-heptanoic acid] |  | 148 | not active
CCCCCC(O)c1ccc([C@@H]2[C@@H](Cc3cccc(CCC(=O)O)c3)[C@H](Cl)C[C@H]2O)cc1 (stereo partly drawn) [Entry 3, 3-(3-{(1R,2S,3R,5R)-5-Chloro-3-hydroxy-2-[4-(1-hydroxy-hexyl)-phenyl]-cyclopentylmethyl}-phenyl)-propionic acid] |  | 2780 | not active
CCCCCC(O)c1ccc([C@@H]2[C@@H](CCCCCCC(=O)O)[C@H](Cl)C[C@H]2O)cc1 (stereo partly drawn) [Entry 14, 7-{(1R,2S,3R,5R)-5-Chloro-3-hydroxy-2-[4-(1-hydroxy-hexyl)-phenyl]-cyclopentyl}-heptanoic acid] |  | 287 | not active
